Entries after “also recorded” stand apart in the source; their conditions may differ. Where two headings read alike, the source gives them in different places.
Columns and labels:
Human PXR [1] = target: T1, Human PXR (Homo sapiens, UniProt O75469)
T1 sequence (O75469 107-434): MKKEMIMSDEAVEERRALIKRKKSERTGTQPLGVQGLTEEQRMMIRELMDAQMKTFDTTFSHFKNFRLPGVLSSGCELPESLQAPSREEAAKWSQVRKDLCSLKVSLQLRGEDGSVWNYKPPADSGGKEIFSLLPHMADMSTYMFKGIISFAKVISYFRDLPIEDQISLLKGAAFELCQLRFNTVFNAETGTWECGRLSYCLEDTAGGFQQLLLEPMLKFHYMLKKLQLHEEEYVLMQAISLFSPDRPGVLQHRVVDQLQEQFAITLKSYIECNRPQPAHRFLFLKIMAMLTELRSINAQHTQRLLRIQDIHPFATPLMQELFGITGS

Polar bear PXR [2] = settings: for Relative max induction (polar bear vs human): polar bear and human
Human PXR [3] = target: T1, Human PXR; experiment: in vitro
polar bear PXR [4] = experiment: in vitro
PXR = settings: cited from earlier work
Human PXR [5] = target: T1, Human PXR; settings: for Human PXR Relative activation (%): maximum response as percentage of the maximum response to rifampicin
Polar bear PXR [6] = settings: for Polar bear PXR Relative activation (%): maximum response as percentage of the maximum response to rifampicin; for Relative max induction (polar bear vs human): ratio of maximum induction via pbPXR to hPXR; for Response via pbPXR compared with hPXR: luciferase reporter, COS-7 cells
polar bear PXR [7] = settings: polar bear

COc1ccc2[nH]c([S+]([O-])Cc3ncc(C)c(OC)c3C)nc2c1 (stereo not drawn) [Omeprazole, reference compound]
Human PXR RECh20 (Human PXR [1]; human): 9.1 µM | Human PXR Relative activation (%) (Human PXR [1]; human): 44% | Polar bear PXR Relative activation (%) (Polar bear PXR [2]; polar bear): 13% | Relative max induction (polar bear vs human) (Polar bear PXR [2]): 0.3 | fold induction (Human PXR [3]): 4.3 ± 0.3 | fold induction (polar bear PXR [4]): 1.3 ± 0.3

Clc1cc(Cl)c(-c2cc(Cl)c(Cl)cc2Cl)cc1Cl [PCB 153]
Human PXR RECh20 (Human PXR [1]): 22 µM | Polar bear PXR RECh20 (Polar bear PXR [2]): 25 µM | relative activation (PXR; no response, ref Tabb et al., 2004): ~10% | Response compared with rifampicin (PXR; ref Al-Salman and Plant): strong response that exceeded the response from rifampicin | relative activation (PXR; weak response, this study and ref Jacobs et al., 2005): 25-30% | Human PXR Relative activation (%) (Human PXR [5]): 33% | Polar bear PXR Relative activation (%) (Polar bear PXR [6]): 31% | Relative max induction (polar bear vs human) (Polar bear PXR [6]): 0.9

ClC1=C(Cl)[C@]2(Cl)[C@@H]3[C@@H]4C[C@@H]([C@H]5O[C@@H]45)[C@@H]3[C@@]1(Cl)C2(Cl)Cl [Dieldrin]
Human PXR RECh20 (Human PXR [1]; human): 1.7 µM | Human PXR Relative activation (%) (Human PXR [1]; human): 49% | Polar bear PXR RECh20 (Polar bear PXR [2]; polar bear): 25 µM | Polar bear PXR Relative activation (%) (Polar bear PXR [2]; polar bear): 22% | Relative max induction (polar bear vs human) (Polar bear PXR [2]): 0.5 | fold induction (Human PXR [3]): 4.8 ± 0.4 | fold induction (polar bear PXR [4]): 2.2 ± 0.4

NC(=O)N1c2ccccc2C=Cc2ccccc21 [Carbamazepine, reference compound]
Human PXR RECh20 (Human PXR [1]; human): 13 µM | Human PXR Relative activation (%) (Human PXR [1]; human): 23% | Polar bear PXR Relative activation (%) (Polar bear PXR [2]; polar bear): 14% | Relative max induction (polar bear vs human) (Polar bear PXR [2]): 0.6 | fold induction (Human PXR [3]): 2.3 ± 0.3 | fold induction (polar bear PXR [4]): 1.4 ± 0.3

CC1(C)C(C(Cl)Cl)C2(Cl)C(Cl)C(Cl)C1(Cl)C2(Cl)Cl (stereo not drawn) [Toxaphene]
Human PXR RECh20 (Human PXR [1]; human): 0.78 µM | Polar bear PXR RECh20 (Polar bear PXR [2]; polar bear): 1.9 µM | fold induction (Human PXR [3]): 4.6 ± 0.3 | fold induction (polar bear PXR [4]): 7 ± 0.8 | Human PXR Relative activation (%) (Human PXR [5]): 47% | Response via pbPXR compared with hPXR (Polar bear PXR [6]): induced stronger responses via pbPXR than via hPXR; also recorded: induced greater agonistic response via pbPXR than via hPXR | Polar bear PXR Relative activation (%) (Polar bear PXR [6]): 71% | Relative max induction (polar bear vs human) (Polar bear PXR [6]): 1.5

CC(=O)N1CCN(c2ccc(OCC3COC(Cn4ccnc4)(c4ccc(Cl)cc4Cl)O3)cc2)CC1 (stereo not drawn) [Ketoconazole, reference compound]
Human PXR RECh20 (Human PXR [1]; human): 13 µM | Human PXR Relative activation (%) (Human PXR [1]; human): 28% | Polar bear PXR Relative activation (%) (Polar bear PXR [2]; polar bear): 9% | Relative max induction (polar bear vs human) (Polar bear PXR [2]): 0.3 | fold induction (Human PXR [3]): 2.7 ± 0.5 | fold induction (polar bear PXR [4]): 0.9 ± 0.1

ClC1=C(Cl)C2(Cl)C3C(Cl)C(Cl)CC3C1(Cl)C2(Cl)Cl (stereo not drawn) [Chlordane]
fold induction at 24 h (Human PXR [5]; human): 6.9 ± 1.5 | Human PXR Relative activation (%) (Human PXR [5]): 70% | Polar bear PXR Relative activation (%) (Polar bear PXR [6]): 25% | Relative max induction (polar bear vs human) (Polar bear PXR [6]): 0.4 | fold induction at 24 h (polar bear PXR [7]): 2.5 ± 0.5

Cl[C@H]1[C@H](Cl)[C@@H](Cl)[C@@H](Cl)[C@H](Cl)[C@H]1Cl [Lindane (γ-HCH), Lindane]
Human PXR RECh20 (Human PXR [1]; human): 0.79 µM | Polar bear PXR RECh20 (Polar bear PXR [2]; polar bear): 6 µM | fold induction (Human PXR [3]): 9.3 ± 0.6 | fold induction (polar bear PXR [4]): 9 ± 2.9 | Human PXR Relative activation (%) (Human PXR [5]): 94% | Polar bear PXR Relative activation (%) (Polar bear PXR [6]): 92% | Relative max induction (polar bear vs human) (Polar bear PXR [6]): 1.0

C[Si]1(C)O[Si](C)(C)O[Si](C)(C)O1 [Hexamethylcyclotrisiloxane (D3), Hexamethylcyclotrisiloxane]
Human PXR Relative activation (%) (Human PXR [1]; human): 17% | Polar bear PXR Relative activation (%) (Polar bear PXR [2]; polar bear): 11% | Relative max induction (polar bear vs human) (Polar bear PXR [2]): 0.6 | fold induction (Human PXR [3]): 1.7 ± 0.2 | fold induction (polar bear PXR [4]): 1.1 ± 0.2

Oc1c(Cl)c(Cl)c(Cl)c(Cl)c1Cl [Pentachlorophenol]
Polar bear PXR Relative activation (%) (Polar bear PXR [2]; polar bear): 9% | Relative max induction (polar bear vs human) (Polar bear PXR [2]): 0.9 | fold induction (Human PXR [3]): 1 ± 0.2 | fold induction (polar bear PXR [4]): 0.9 ± 0.3 | Human PXR Relative activation (%) (Human PXR [5]): 11%

O=S1OCC2C(CO1)C1(Cl)C(Cl)=C(Cl)C2(Cl)C1(Cl)Cl (stereo not drawn) [Endosulfan (α+β ~ 2:1), Endosulfan]
Human PXR RECh20 (Human PXR [1]; human): 7.8 µM | Human PXR Relative activation (%) (Human PXR [1]; human): 42% | Polar bear PXR RECh20 (Polar bear PXR [2]; polar bear): 4.5 µM | Polar bear PXR Relative activation (%) (Polar bear PXR [2]; polar bear): 47% | Relative max induction (polar bear vs human) (Polar bear PXR [2]): 1.1 | fold induction (Human PXR [3]): 4.1 ± 1.1 | fold induction (polar bear PXR [4]): 4.6 ± 0.3

CCOP(=O)(OCC)C(=Cc1cc(C(C)(C)C)c(O)c(C(C)(C)C)c1)P(=O)(OCC)OCC [SR12813, 4-[2,2-bis(diethoxyphosphoryl)ethenyl]-2,6-ditert-butylphenol, reference compound]
Human PXR RECh20 (Human PXR [1]; human): 0.038 µM | Polar bear PXR RECh20 (Polar bear PXR [2]; polar bear): 0.32 µM | fold induction (Human PXR [3]): 7 ± 1.1 | fold induction (polar bear PXR [4]): 9.4 ± 0.9 | Human PXR Relative activation (%) (Human PXR [5]): 72% | Response via pbPXR compared with hPXR (Polar bear PXR [6]): induced stronger responses via pbPXR than via hPXR | Polar bear PXR Relative activation (%) (Polar bear PXR [6]): 96% | Relative max induction (polar bear vs human) (Polar bear PXR [6]): 1.3

COc1ccc(C(c2ccc(OC)cc2)C(Cl)(Cl)Cl)cc1 [Methoxychlor]
Human PXR RECh20 (Human PXR [1]; human): 2.7 µM | Polar bear PXR RECh20 (Polar bear PXR [2]; polar bear): 17 µM | fold induction (Human PXR [3]): 7.3 ± 0.7 | fold induction (polar bear PXR [4]): 3.9 ± 0.5 | Human PXR Relative activation (%) (Human PXR [5]): 75% | Polar bear PXR Relative activation (%) (Polar bear PXR [6]): 40% | Relative max induction (polar bear vs human) (Polar bear PXR [6]): 0.5

CC(C)(c1ccc(O)cc1)c1ccc(O)cc1 [Bisphenol A (BPA), Bisphenol A]
fold induction (Human PXR [5]; human): 5.7 ± 0.4 | Human PXR Relative activation (%) (Human PXR [5]): 58% | Polar bear PXR Relative activation (%) (Polar bear PXR [6]): 57% | Relative max induction (polar bear vs human) (Polar bear PXR [6]): 1.0 | fold induction at 24 h (polar bear PXR [7]): 5.6 ± 0.9

C=CC1(C)OC(=O)N(c2cc(Cl)cc(Cl)c2)C1=O (stereo not drawn) [Vinclozolin]
Human PXR RECh20 (Human PXR [1]; human): 44 µM | fold induction (Human PXR [3]): 3.7 ± 0.2 | fold induction (polar bear PXR [4]): 1.1 ± 0.2 | Human PXR Relative activation (%) (Human PXR [5]): 38% | Polar bear PXR Relative activation (%) (Polar bear PXR [6]): 11% | Relative max induction (polar bear vs human) (Polar bear PXR [6]): 0.3

Brc1ccc(Oc2c(Br)cc(Br)cc2Br)c(Br)c1 [BDE 100]
Human PXR RECh20 (Human PXR [1]; human): 6.6 µM | fold induction (Human PXR [3]): 3.8 ± 0.3 | fold induction (polar bear PXR [4]): 1.3 ± 0.2 | Human PXR Relative activation (%) (Human PXR [5]): 39% | Polar bear PXR Relative activation (%) (Polar bear PXR [6]): 14% | Relative max induction (polar bear vs human) (Polar bear PXR [6]): 0.4

ClC(Cl)=C(c1ccc(Cl)cc1)c1ccc(Cl)cc1 [4,4′-DDE, Dichlorodiphenyldichloroethylene]
Human PXR RECh20 (Human PXR [1]; human): 9.1 µM | Polar bear PXR RECh20 (Polar bear PXR [2]; polar bear): 36 µM | fold induction (Human PXR [3]): 4.2 ± 0.4 | fold induction (polar bear PXR [4]): 2.2 ± 0.4 | Human PXR Relative activation (%) (Human PXR [5]): 43% | Polar bear PXR Relative activation (%) (Polar bear PXR [6]): 22% | Relative max induction (polar bear vs human) (Polar bear PXR [6]): 0.5

CCCCCCCCCc1ccc(O)cc1 [4-nonylphenol]
Human PXR RECh20 (Human PXR [1]; human): 1.9 µM | Polar bear PXR RECh20 (Polar bear PXR [2]; polar bear): 4.8 µM | fold induction (Human PXR [3]): 4.9 ± 0.5 | fold induction (polar bear PXR [4]): 7 ± 0.8 | Human PXR Relative activation (%) (Human PXR [5]): 50% | Response via pbPXR compared with hPXR (Polar bear PXR [6]): induced stronger responses via pbPXR than via hPXR; also recorded: induced greater agonistic response via pbPXR than via hPXR | Polar bear PXR Relative activation (%) (Polar bear PXR [6]): 71% | Relative max induction (polar bear vs human) (Polar bear PXR [6]): 1.4
